These results are taken from ChEMBL document CHEMBL1201862, “PubChem BioAssay data set” (2004).

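How tested: cells in 96-well plates exposed to compound for 48 hours at five concentrations. At the GI50, growth is halved.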 The source made the active and inactive calls. Rule as the data show it: active = GI50 up to about 1.1 µM and inactive = higher.

Test systems include SR; OVCAR-8; LXFL 529; CAKI-1; SF-295; M14; K562; HCC 2998; NCI-H226; RXF 393; HCT-116; U-251; UO-31; NCI-H522; KM12; SNB-19; OVCAR-3; SK-MEL-2; MCF7.
Common to all, as to assay: DTP human tumour cell line panel, 48 h

A word on the GI50: it is the concentration at which growth is held to half of that of the control. For `N#C/C(=C\c1ccc(O)c(O)c1)C(=O)NC1CCC(CC2CCC(NC(=O)/C(C#N)=C/c3ccc(O)c(O)c3)CC2)CC1` (configuration not stated), the GI50 with SR was 0.424 µM (active); in the experiment with OVCAR-8, 0.459 µM (active); in the experiment on LXFL 529, 0.433 µM (active); with CAKI-1, 2.04 µM (inactive); in the experiment on SF-295 it was 1.3 µM (inactive); in the experiment with M14, 1.85 µM (inactive). Moreover, the GI50 is 0.564 µM (active) in the experiment with K562; 2.24 µM (inactive) in the experiment on HCC 2998; 4.38 µM (inactive) with NCI-H226; 2.29 µM (inactive) in the experiment on RXF 393; 0.233 µM (active) in the experiment on HCT-116; 0.973 µM (active) in the experiment on U-251. Also, the GI50 in the experiment on UO-31 is 1.77 µM (inactive); in the experiment on NCI-H522, 0.437 µM (active); with KM12, 1.47 µM (inactive); in the experiment with SNB-19, 3.52 µM (inactive); in the experiment on OVCAR-3, 1.37 µM (inactive); with SK-MEL-2, 2 µM (inactive).
Regarding `COC[n+]1cc2cc(OC)c(OC)cc2c2ccc3cc(OC)c(OC)cc3c21`, the GI50 in the experiment on SR was > 10 µM (inactive); in the experiment with OVCAR-8 it was > 100 µM (inactive); in the experiment on LXFL 529, > 100 µM (inactive); in the experiment on CAKI-1 it was > 100 µM (inactive); in the experiment with SF-295 it was > 100 µM (inactive); in the experiment on M14 it was > 100 µM (inactive). The GI50 in the experiment on K562, in the experiment with HCC 2998, with NCI-H226, in the experiment on RXF 393, in the experiment on HCT-116 and in the experiment on U-251 was > 100 µM (inactive) in each case. Besides, the GI50 in the experiment with UO-31, in the experiment on NCI-H522, with KM12, in the experiment on SNB-19, with OVCAR-3 and in the experiment on SK-MEL-2 was > 100 µM (inactive) each time.
On to `CCOC(=O)c1cccnc1C(OC(C)=O)OC(C)=O`, for which the GI50 in the experiment on SR is > 100 µM (inactive); in the experiment with OVCAR-8, > 100 µM (inactive); in the experiment on LXFL 529, > 100 µM (inactive); with CAKI-1 it was > 100 µM (inactive); in the experiment with SF-295, 83.4 µM (inactive); in the experiment with M14, > 100 µM (inactive). Further, the GI50 in the experiment on K562, in the experiment on HCC 2998, in the experiment on NCI-H226, with RXF 393, in the experiment on HCT-116 and in the experiment on U-251 was > 100 µM (inactive) each time. Further, the GI50 in the experiment with UO-31, in the experiment on NCI-H522, in the experiment with KM12, in the experiment with SNB-19, with OVCAR-3 and in the experiment with SK-MEL-2 was > 100 µM (inactive) throughout.
Regarding `CCCOP1(=O)C=C(O)C(Cl)=C(C)C1` (configuration not stated), the GI50 in the experiment with SR, in the experiment on OVCAR-8, in the experiment on LXFL 529, in the experiment with SF-295, in the experiment with M14 and in the experiment with K562 was > 100 µM (inactive) throughout. Besides, the GI50 in the experiment on HCC 2998, with NCI-H226, in the experiment with RXF 393, in the experiment with HCT-116, with U-251 and in the experiment with UO-31 was > 100 µM (inactive) throughout. The GI50 with NCI-H522 is > 100 µM (inactive); in the experiment on KM12 it was 41.2 µM (inactive); in the experiment on SNB-19 it was > 100 µM (inactive); in the experiment with OVCAR-3 it was > 100 µM (inactive); in the experiment on SK-MEL-2, 40.6 µM (inactive).
Take `C=CC(=O)C#CC#CC/C=C\CCCCCCC`: the GI50 with SR was 5.65 µM (inactive); with OVCAR-8, > 19.8 µM (inactive); with LXFL 529, 7.74 µM (inactive); in the experiment on CAKI-1, > 20.6 µM (inactive); in the experiment with SF-295, > 20.6 µM (inactive); with M14 it was > 14.6 µM (inactive). For the same compound, the GI50 in the experiment with K562 was 6.82 µM (inactive); with MCF7 it was > 20.6 µM (inactive); in the experiment with HCC 2998 it was > 20.6 µM (inactive); with NCI-H226 it was > 20.6 µM (inactive); in the experiment with RXF 393, > 11.3 µM (inactive); with HCT-116 it was > 17.6 µM (inactive). Moreover, the GI50 in the experiment on U-251 was > 20.6 µM (inactive); with UO-31 it was > 20.6 µM (inactive); in the experiment on NCI-H522 it was 16 µM (inactive); in the experiment on KM12, > 20.6 µM (inactive); in the experiment on SNB-19, > 15.5 µM (inactive); in the experiment on OVCAR-3 it was > 20.6 µM (inactive). Also, in the experiment on SK-MEL-2, the GI50 is > 20.6 µM (inactive).
With `O=C1CCC(=O)C(C(=O)CCC(=O)Nc2cccc(Cl)c2)C1` (configuration not stated), the GI50 in the experiment with SR, with OVCAR-8, in the experiment on LXFL 529, in the experiment with CAKI-1, with SF-295 and in the experiment with M14 was > 100 µM (inactive) each time. For the same compound, the GI50 with K562, in the experiment on HCC 2998, in the experiment with NCI-H226, in the experiment with RXF 393, in the experiment with HCT-116 and in the experiment with U-251 was > 100 µM (inactive) throughout. Also, the GI50 in the experiment on UO-31, with NCI-H522, in the experiment with KM12, in the experiment on SNB-19 and with OVCAR-3 was > 100 µM (inactive) in each case.
As for `COC(=O)C(CC(=O)Nc1ccc(Cl)c(Cl)c1)C(=O)C(=O)NC1C2CC3CC(C2)CC1C3` (configuration not stated), the GI50 in the experiment with SR, in the experiment on OVCAR-8, with LXFL 529, with CAKI-1, in the experiment with SF-295 and in the experiment on M14 was > 100 µM (inactive) each time. Also, the GI50 in the experiment on K562, in the experiment on HCC 2998, in the experiment on NCI-H226, with RXF 393, with HCT-116 and in the experiment on U-251 was > 100 µM (inactive) in each case. Besides, the GI50 in the experiment with UO-31, with NCI-H522, in the experiment with KM12, in the experiment on SNB-19, with OVCAR-3 and in the experiment with SK-MEL-2 was > 100 µM (inactive) in each case.
Turning to `Cc1c(/C=N/N=C/c2[nH]c(C(=O)OC(C)(C)C)c(C)c2C)[nH]c(C(=O)OC(C)(C)C)c1C`, the GI50 with SR is > 100 µM (inactive); in the experiment on OVCAR-8 it was 98.9 µM (inactive); in the experiment with LXFL 529, > 100 µM (inactive); in the experiment with CAKI-1, > 100 µM (inactive); with SF-295, > 100 µM (inactive); in the experiment on M14 it was > 100 µM (inactive). The GI50 in the experiment on K562 was 59.4 µM (inactive); in the experiment on HCC 2998, > 100 µM (inactive); in the experiment with NCI-H226, > 100 µM (inactive); with RXF 393 it was > 100 µM (inactive); in the experiment on HCT-116, > 100 µM (inactive); in the experiment with U-251 it was > 100 µM (inactive). Also, the GI50 in the experiment with UO-31 was > 100 µM (inactive); in the experiment on NCI-H522, 66.5 µM (inactive); in the experiment with KM12, > 100 µM (inactive); in the experiment with SNB-19, > 100 µM (inactive); in the experiment with OVCAR-3 it was > 100 µM (inactive); in the experiment on SK-MEL-2, > 100 µM (inactive).
As for `COC(=O)/C(=C/c1ccc(OC)cc1)C(C(=O)O)=C(C)C`, the GI50 in the experiment on SR, with OVCAR-8, with LXFL 529, in the experiment with CAKI-1, with SF-295 and in the experiment with M14 was > 100 µM (inactive) each time. For the same compound, the GI50 in the experiment on K562, in the experiment with HCC 2998, in the experiment with NCI-H226, with RXF 393, in the experiment on HCT-116 and with U-251 was > 100 µM (inactive) each time. Besides, the GI50 in the experiment with UO-31, with NCI-H522, in the experiment with KM12, with SNB-19, in the experiment with OVCAR-3 and in the experiment on SK-MEL-2 was > 100 µM (inactive) throughout.
Take `NC(C(=O)O)c1ccc(C(=O)O)cc1` (configuration not stated): the GI50 in the experiment with SR, in the experiment with OVCAR-8, with LXFL 529, with CAKI-1, in the experiment on SF-295 and in the experiment on M14 was > 100 µM (inactive) in each case. Also, the GI50 with K562, with HCC 2998, in the experiment with NCI-H226, with RXF 393, in the experiment with U-251 and in the experiment on UO-31 was > 100 µM (inactive) throughout. Besides, the GI50 with NCI-H522, in the experiment on KM12, in the experiment with SNB-19, in the experiment on OVCAR-3 and with SK-MEL-2 was > 100 µM (inactive) each time.
On to `C/C=C/C1=C(Cl)C(=O)[C@@H](Cl)[C@@]1(O)C(=O)OC` [(+)-CRYPTOSPORIPSIN], for which the GI50 was 1.84 µM (inactive) with SR; 2.08 µM (inactive) with OVCAR-8; 2.64 µM (inactive) in the experiment with LXFL 529; 2.39 µM (inactive) in the experiment with CAKI-1; 11.2 µM (inactive) with SF-295; 3.13 µM (inactive) in the experiment on M14. The GI50 with K562 was 0.869 µM (active); in the experiment with MCF7, 1.48 µM (inactive); in the experiment on HCC 2998, 3.28 µM (inactive); in the experiment with NCI-H226, 10.2 µM (inactive); with RXF 393, 2.13 µM (inactive); in the experiment on HCT-116, 2.84 µM (inactive). For the same compound, the GI50 with U-251 was 5.02 µM (inactive); in the experiment on UO-31, 5.61 µM (inactive); in the experiment on NCI-H522 it was 1.06 µM (active); with KM12, 7.13 µM (inactive); with SNB-19, 3.8 µM (inactive); in the experiment on OVCAR-3, 2.45 µM (inactive). Besides, the GI50 in the experiment with SK-MEL-2 was 2.72 µM (inactive).
